Test results published in patent US20080103189A1, “PREPARATION AND UTILITY OF SUBSTITUTED INDOLES” (Auspex Pharmaceuticals, Inc., priority 2006, published 2008).

Conditions: topical or ocular, 5 microgram per mL
Protocol: Liver microsomal stability assays were conducted at 1 mg per mL liver microsome protein with an NADPH-generating system in 2% NaHCO3 (2.2 mM NADPH, 25.6 mM glucose 6-phosphate, 6 units per mL glucose 6-phosphate dehydrogenase and 3.3 mM MgCl2). Test compounds were prepared as solutions in 20% acetonitrile-water and added to the assay mixture (final assay concentration 5 microgram per mL) and incubated at 37° C. Final concentration of acetonitrile in the assay were <1%. Aliquots (50 μL) were taken out at times 0, 15, 30, 45, and 60 minutes, and diluted with ice cold acetonitrile (200 μL) to stop the reactions. Samples were centrifuged at 12000 RPM for 10 minutes to precipitate proteins. Supernatants were transferred to microcentrifuge tubes and stored for LC/MS/MS analysis of the degradation half-life of the test compounds.

increase in the degradation half-life as compared to the non-isotopically enriched drug: 20-250%
SMILES: [2H]C([2H])(Cc1c[nH]c2ccc(CS(=O)(=O)N3CCCC3)cc12)N(C)C
